Like-named read-outs stand apart in the source and are kept apart here. Values belong to the compound of their own block, whether it stands above or below them.
How the values were obtained:
[1] = test system: intracellular L. (L.) infantum amastigotes; assay: Activity against intracellular amastigotes in infected macrophages, Giemsa counting; type: cell-based, Leishmania (L.) infantum; conditions: for IC50 / Amastigotes IC50 (C.I.95%): BALB/c peritoneal macrophages infected with amastigotes, 120 h at 37°C, na = not active; for IC50: read-out: Amastigotes IC50 (C.I.95%)
Experimental: (§1) L. (L.) infantum (MHOM/BR/1972/LD) promastigotes were maintained in M-199 medium supplemented with 10% fetal bovine serum (FBS) and 0.25% hemin at 24°C. L. (L.) infantum was maintained in golden hamsters for up to approximately 60–70 days post-infection. The amastigotes were obtained from the spleens of previously infected hamsters by differential centrifugation. The macrophages were collected from the peritoneal cavity of BALB/c mice by washing with RPMI-1640 (without phenol red and supplemented with 10% FBS). NCTC (clone 929) murine conjunctive cells were maintained in RPMI-1640 (without phenol red and supplemented with 10% FBS) at 37°C in a humidified containing 5% CO2.
The activity against intracellular L. (L.) infantum amastigotes was determined in infected macrophages. Macrophages were obtained as previously described and seeded for 24 h at 1×10^5 cells/well in 16-well slide chambers (Nunc). Amastigotes were isolated from the spleens of previously infected hamsters, separated by differential centrifugation and added to the macrophages at a ratio of 1∶10 (macrophage/amastigotes) for 24 h at 37°C. Non-internalized parasites were removed by washing once with medium and the cells were then incubated with the test compounds for 120 h at 37°C in 5% CO2, using miltefosine as standard drug. At the end of the assay, the cells were fixed in methanol, stained with Giemsa and observed under a light microscope to determine the number of intracellular parasites. The number of amastigotes was determined in 400 macrophages from the drug-treated and control wells [15].
(§2) The obtained data represent the mean and standard deviation of two independent experiments performed in duplicate. The IC50 and CC50 values were calculated using sigmoid dose-response curves performed using GraphPad Prism version 5.0 (GraphPad Software, San Diego, CA, USA), and the 95% confidence intervals (95% CI) were included. The ANOVA test was performed to evaluate the significance (p<0.05) of data.

[2] = test system: L. (L.) infantum promastigotes; assay: Antileishmanial activity against promastigotes, MTT assay; type: cell-based, Leishmania (L.) infantum; conditions: 48 h at 24°C, highest concentration 200 µM, na = not active, read-out: Promastigotes IC50 (C.I.95%)
Experimental: as §1
Promastigotes were counted in a Neubauer hemocytometer and seeded at 1×10^6 cells per well in 96-well microplates using miltefosine as standard drug. The tested compounds were incubated at the highest concentration of 200 µM for 48 h at 24°C. Parasite viability was determined using the MTT assay. Briefly, 3-[4,5-dimethylthiazol-2-yl]-2,5-diphenyltetrazolium bromide (MTT) was dissolved in phosphate-buffered saline (PBS) at 5 mg/mL, sterilized through 0.22 µm membranes and incubated with cells (20 µL/well) for 4 h at 24°C. The extraction of the mitochondrial formazan was done with 80 µL of 10% SDS for 18 h at 24°C. The optical density was determined in FilterMax F5 (Molecular Devices) at 570 nm. Promastigotes incubated without compounds were used as the viability control (100% viability) and without cells (blank).
as §2

[3] = test system: NCTC clone 929 murine conjunctive cells; assay: Cytotoxicity against mammalian cells, MTT assay; type: cell-based; conditions: NCTC clone 929, 48 h at 37°C, highest concentration 200 µM; for CC50: read-out: Cytotoxicity CC50 (C.I.95%)
Experimental: as §1
(§3) NCTC cells were seeded at 6×10^4 cells/well in 96-well microplates at 37°C in a 5% CO2. The mammalian cells were incubated with tested compounds to the highest concentration of 200 µM for 48 h at 37°C, using miltefosine as standard drug. The viability of the cells was determined by MTT assay at 570 nm. The selectivity index (SI) was determined considering the following equation: CC50 NCTC cells/IC50 amastigotes.
as §2

[4] = Cytotoxicity against mammalian cells, MTT assay; type: cell-based, murine; conditions: mouse, NCTC clone 929 murine conjunctive cells, NCTC clone 929, 48 h at 37°C, highest concentration 200 µM, read-out: Cytotoxicity CC50 (C.I.95%)
Experimental: as §1, §3, §2

Compound: Cc1ccc(SCC2=C(O)C(=O)c3ccccc3C2=O)cc1 [Compound 1]
IC50 [1]: > 200 µM
IC50 [2]: > 200 µM
CC50 [3]: 89.1 µM

Compound: O=C1C(O)=C(CSc2ccccc2)C(=O)c2ccccc21 [Compound 2]
Amastigotes IC50 (C.I.95%) [1]: no activity
IC50 [2]: 124 µM
CC50 [3]: 84.7 µM

Compound: COc1ccc(SCC2=C(O)C(=O)c3ccccc3C2=O)cc1 [Compound 3]
Amastigotes IC50 (C.I.95%) [1]: no activity
IC50 [2]: 75 µM
CC50 [3]: 92.6 µM

Compound: O=C1C(O)=C(CSc2ccc(Cl)cc2)C(=O)c2ccccc21 [Compound 4]
Amastigotes IC50 (C.I.95%) [1]: no activity
IC50 [2]: 85.4 µM
CC50 [3]: 82.2 µM

Compound: O=C1C(O)=C(CSc2ccc(F)cc2)C(=O)c2ccccc21 [Compound 5]
Amastigotes IC50 (C.I.95%) [1]: no activity
IC50 [2]: 129 µM
CC50 [3]: 97.9 µM

Compound: CSc1ccc(SCC2=C(O)C(=O)c3ccccc3C2=O)cc1 [Compound 6]
Amastigotes IC50 (C.I.95%) [1]: no activity
IC50 [2]: 188 µM
CC50 [3]: 100 µM

Compound: O=C1C(O)=C(CSc2ccc([N+](=O)[O-])cc2)C(=O)c2ccccc21 [Compound 7]
Amastigotes IC50 (C.I.95%) [1]: no activity
IC50 [2]: 8.44 µM
CC50 [3]: 85.5 µM

Compound: CCCSCC1=C(O)C(=O)c2ccccc2C1=O [Compound 9]
IC50 [1]: > 200 µM
IC50 [2]: > 200 µM
Cytotoxicity CC50 (C.I.95%) [3]: lack of toxicity
CC50 [3]: > 200 µM

Compound: Cc1ccccc1SCC1=C(O)C(=O)c2ccccc2C1=O [Compound 13]
IC50 [1]: > 200 µM
IC50 [2]: > 200 µM
Cytotoxicity CC50 (C.I.95%) [3]: lack of toxicity
CC50 [3]: > 200 µM

Compound: Cc1cccc(SCC2=C(O)C(=O)c3ccccc3C2=O)c1 [Compound 14]
IC50 [1]: > 200 µM
IC50 [2]: > 200 µM
Cytotoxicity CC50 (C.I.95%) [3]: lack of toxicity
CC50 [3]: > 200 µM

Compound: O=C1C(O)=C(CSc2ccc3ccccc3c2)C(=O)c2ccccc21 [Compound 15]
IC50 [1]: > 200 µM
IC50 [2]: > 200 µM
Cytotoxicity CC50 (C.I.95%) [3]: lack of toxicity
CC50 [3]: > 200 µM

Compound: O=C1C(O)=C(C(Sc2ccc([N+](=O)[O-])cc2)c2ccccc2)C(=O)c2ccccc21 (stereo not drawn) [Compound 19]
Amastigotes IC50 (C.I.95%) [1]: no activity
IC50 [2]: 9.06 µM
CC50 [3]: 69.5 µM

Compound: Cc1cccc(SC(C2=C(O)C(=O)c3ccccc3C2=O)c2ccccc2)c1 (stereo not drawn) [Compound 20]
IC50 [1]: 14.7 µM
IC50 [2]: 26.4 µM
CC50 [3]: 138 µM

Compound: CCCSC(C1=C(O)C(=O)c2ccccc2C1=O)c1ccccc1 (stereo not drawn) [Compound 24]
IC50 [1]: > 200 µM
IC50 [2]: > 200 µM
Cytotoxicity CC50 (C.I.95%) [3]: lack of toxicity
CC50 [3]: > 200 µM

Compound: Cc1ccc(SC(C2=C(O)C(=O)c3ccccc3C2=O)c2ccc([N+](=O)[O-])cc2)cc1 (stereo not drawn) [Compound 25]
Amastigotes IC50 (C.I.95%) [1]: no activity
IC50 [2]: 108 µM
CC50 [3]: 42.6 µM

Compound: O=C1C(O)=C(C(Sc2ccccc2)c2ccc([N+](=O)[O-])cc2)C(=O)c2ccccc21 (stereo not drawn) [Compound 28]
Amastigotes IC50 (C.I.95%) [1]: no activity
IC50 [2]: 40.1 µM
CC50 [3]: 94.2 µM

Compound: Cc1ccccc1SC(C1=C(O)C(=O)c2ccccc2C1=O)c1ccc([N+](=O)[O-])cc1 (stereo not drawn) [Compound 34]
Amastigotes IC50 (C.I.95%) [1]: no activity
IC50 [2]: 82.9 µM
CC50 [3]: 96 µM

Compound: CCCSC(C1=C(O)C(=O)c2ccccc2C1=O)c1ccc([N+](=O)[O-])cc1 (stereo not drawn) [Compound 35]
IC50 [1]: > 200 µM
IC50 [2]: > 200 µM
CC50 [3]: 75.1 µM

Compound: O=C1C(O)=C(C(Sc2ccc3ccccc3c2)c2ccc([N+](=O)[O-])cc2)C(=O)c2ccccc21 (stereo not drawn) [Compound 36]
IC50 [1]: > 200 µM
IC50 [2]: > 200 µM
CC50 [3]: 58.2 µM

IC50 ([1]; Leishmania infantum, Peritoneal macrophage, in Mus musculus): 17.8 µM
Compound: CCCCCCCCCCCCCCCCOP(=O)([O-])OCC[N+](C)(C)C [miltefosine, reference compound]
S.I. selectivity index (CC50 mammalian cells/IC50 amastigotes) ([1]; CC50 NCTC cells/IC50 amastigotes): 6.85
IC50 ([2]; Leishmania infantum): 16.9 µM
CC50 at 48 h [4]: 122 µM

— article PMC4149375, “Potential of 2-Hydroxy-3-Phenylsulfanylmethyl-[1,4]-Naphthoquinones against Leishmania (L.) infantum: Biological Activity and Structure-Activity Relationships” (PLoS ONE, 2014)
